From patent US9340577B2, “HLA binding motifs and peptides and their uses” (priority 1992, dated 2016)
No end group written: not given here.

Assays:
Assay in all cases: biochemical
DRB5*0101 = DRB5*0101 (Homo sapiens, UniProt P01903+Q30154); settings: Binding affinity DRB5 *0101
DRB3*0101 = DRB3*0101 (Homo sapiens, UniProt P01903+P79483); type: binding
DRB1*1101 = DRB1*1101 (Homo sapiens, UniProt P01903+P01911, A100R/A169T/A87E/I96F/K41T/L162R/M171V/P40S/Q125H/Q178H/Q39Y/Q99D/R42S/S66Y/T262R/V115G/W38E); settings: Binding affinity DRB1 *1101
DRB1*1101, sequence (P01903 26-254 limits assumed, other chains not shown): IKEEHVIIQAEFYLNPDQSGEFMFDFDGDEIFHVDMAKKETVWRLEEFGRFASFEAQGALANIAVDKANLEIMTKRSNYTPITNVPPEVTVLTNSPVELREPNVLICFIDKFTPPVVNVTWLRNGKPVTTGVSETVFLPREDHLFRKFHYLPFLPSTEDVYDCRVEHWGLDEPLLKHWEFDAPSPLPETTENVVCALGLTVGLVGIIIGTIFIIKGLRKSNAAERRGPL

DRB1*1201 = DRB1*1201 (Homo sapiens, UniProt P01903+P01911, A100R/A169T/D57E/D86V/F55L/H45Y/K41T/L162R/M171V/P40S/Q125H/Q178H/Q39Y/Q99D/R42G/S66L/T262R/V114A/V67L/W38E/Y59H/Y61H/Y89S); type: binding
DRB1*0802 = DRB1*0802 (Homo sapiens, UniProt P01903+P01911, A100R/A103L/A169T/F76Y/H45Y/I96F/K41T/L162R/M171V/P40S/Q125H/Q178H/Q39Y/Q99D/R218S/R42G/S66Y/V115G/W38E); type: binding
DRB1*1501 = DRB1*1501 (Homo sapiens, UniProt P01903+P01911); type: binding
DR4w4 (DRB1*0401) = DR4w4 (DRB1*0401) (Homo sapiens, UniProt P01903+P01911, A100K/A169T/F76Y/I96L/K127E/L162R/M171V/N62H/P40V/Q125Y/R42H/S133A/S149N/S66Y/V115G/V209L/W38E); type: binding
DR7 (DRB1*0701) = DR7 (DRB1*0701) (Homo sapiens, UniProt P01903+P01911, A100R/A102G/A103Q/D57E/D86V/E43K/F76Y/K127E/L162R/M171V/P40G/Q125H/Q99D/R33Q/R42Y/R54Q/S133A/S66F/T210M/V115G/Y107V/Y59L/Y89S); type: binding
DR1 (DRB1*0101) = DR1 (DRB1*0101) (Homo sapiens, UniProt P01903+P01911, A100R/D57E/F55L/F60I/F76Y/I96L/L162R/M171V/P40L/Q125E/R42F/V115G/Y59C); type: binding
DRB1*1302 = DRB1*1302 (Homo sapiens, UniProt P01903+P01911, A100E/A169T/K41T/L162R/M171V/P40S/Q125H/Q178H/Q39Y/Q99D/R42S/S66N/T262R/V115G/W38E/Y61H); type: binding
DRB1*1302, sequence (P01903 26-254 limits assumed, other chains not shown): as above

DRB1*0901 = DRB1*0901 (Homo sapiens, UniProt P01903+P01911, A100R/A103E/D57H/D86V/F55Y/F60I/F76Y/I96F/K127E/L162R/M171V/P40D/Q125H/Q99R/R33Q/R42F/S133A/S66N/T210M/V115G/W38K/Y107V/Y59G/Y89S); type: binding

Row | Compound | IC50 (DRB5*0101) [µM] | IC50 (DRB3*0101) [µM] | IC50 (DRB1*1101) [µM] | IC50 (DRB1*1201) [µM] | IC50 (DRB1*0802) [µM] | IC50 (DRB1*1501) [µM] | IC50 (DR4w4 (DRB1*0401)) [µM] | IC50 (DR7 (DRB1*0701)) [µM] | IC50 (DR1 (DRB1*0101)) [µM] | IC50 (DRB1*1302) [µM] | IC50 (DRB1*0901) [µM]
1 | CC[C@H](C)[C@H](NC(=O)[C@H](CO)NC(=O)[C@H](CC(C)C)NC(=O)[C@@H](NC(=O)[C@H](CC(C)C)NC(=O)[C@@H](N)CC(=O)O)C(C)C)C(=O)N[C@@H](C)C(=O)N[C@@H](CC(C)C)C(=O)N[C@@H](CO)C(=O)N[C@H](C(=O)NCC(=O)N[C@@H](CS)C(=O)N[C@H](C(=O)NCC(=O)N[C@@H](C)C(=O)O)[C@@H](C)O)C(C)C [Peptide 68.0002] | > 20 | > 20 | > 20 | 4.92 | > 20 |  |  |  |  |  | 
2 | KSRLQGGVLVNEILN [Peptide 68.0046] | > 20 | > 20 | > 20 | 9.6 | > 20 | > 20 | > 20 |  |  |  | 
3 | GNEIFNTSLFEPPPP [Peptide 68.0090] | > 20 | > 20 | > 20 | > 20 | > 20 | > 20 |  | > 20 | > 20 |  | 
4 | GRAVCGGVLVHPQWV [Peptide 68.0062] |  | > 20 | > 20 | 16.4 | > 20 |  | > 20 |  |  |  | 
5 | DFEVFFQRLGIASGR [Peptide 68.0114] |  | > 20 |  | 2 |  |  |  | > 20 |  |  | 
6 | CC[C@H](C)[C@H](NC(=O)[C@@H]1CCCN1C(=O)[C@H](CC(=O)O)NC(=O)[C@@H](NC(=O)[C@@H]1CCCN1C(=O)[C@H](Cc1ccccc1)NC(=O)[C@@H](NC(=O)[C@H](CC(=O)O)NC(=O)[C@@H](NC(=O)[C@@H]1CCCN1C(=O)[C@H](CO)NC(=O)[C@@H](N)CCCNC(=N)N)[C@@H](C)CC)[C@@H](C)O)[C@@H](C)O)C(=O)N[C@@H](CCCCN)C(=O)N[C@@H](CCC(=O)O)C(=O)N[C@@H](CO)C(=O)O [Peptide 68.0026] | > 20 | > 20 | > 20 | > 20 | > 20 |  |  | > 20 | > 20 | > 20 | 
7 | CC(C)C[C@H](NC(=O)[C@H](CCC(N)=O)NC(=O)[C@H](C)NC(=O)[C@H](CC(N)=O)NC(=O)[C@H](CCCCN)NC(=O)[C@@H](NC(=O)[C@H](CCCCN)NC(=O)[C@H](CC(N)=O)NC(=O)CN)C(C)C)C(=O)N[C@@H](C)C(=O)NCC(=O)N[C@@H](C)C(=O)N[C@@H](CCCCN)C(=O)NCC(=O)N[C@H](C(=O)O)C(C)C [Peptide 68.0097] |  | > 20 | > 20 | > 20 | > 20 | > 20 |  | > 20 |  | > 20 | 
8 | PHPLYNMSLLKHQSL [Peptide 68.0007] |  | > 20 |  | 0.86 |  |  |  | > 20 |  |  | 
9 | CC[C@H](C)[C@H](NC(=O)[C@@H](NC(=O)[C@H](Cc1c[nH]cn1)NC(=O)[C@@H](N)CCCNC(=N)N)C(C)C)C(=O)N[C@@H](Cc1ccc(O)cc1)C(=O)N[C@@H](C)C(=O)N1CCC[C@H]1C(=O)N[C@@H](CO)C(=O)N[C@@H](CO)C(=O)N[C@@H](Cc1c[nH]cn1)C(=O)N[C@@H](CC(N)=O)C(=O)N[C@@H](CCCCN)C(=O)N[C@@H](Cc1ccc(O)cc1)C(=O)N[C@@H](C)C(=O)NCC(=O)O [Peptide 68.0133] |  | > 20 |  | 7.08 |  |  |  | > 20 |  |  | 
10 | PEEFLRPRSLQCVSL [Peptide 68.0015] | > 20 | > 20 |  | 6.02 |  |  | > 20 |  |  |  | 
11 | CSCC[C@H](NC(=O)[C@H](CC(=O)O)NC(=O)[C@H](Cc1ccc(O)cc1)NC(=O)[C@H](CC(C)C)NC(=O)[C@@H]1CCCN1C(=O)[C@H](Cc1c[nH]cn1)NC(=O)[C@@H]1CCCN1)C(=O)N[C@@H](CO)C(=O)N[C@@H](CC(C)C)C(=O)N[C@@H](CC(C)C)C(=O)N[C@@H](CCCCN)C(=O)N[C@@H](CC(N)=O)C(=O)N[C@@H](CCCNC(=N)N)C(=O)N[C@@H](Cc1ccccc1)C(=O)N[C@@H](CC(C)C)C(=O)O [Peptide 68.0071] |  | > 20 | > 20 | 0.487 | > 20 |  | > 20 |  |  |  | 
12 | CSCC[C@H](NC(=O)CNC(=O)[C@H](CC(C)C)NC(=O)[C@H](CCC(N)=O)NC(=O)[C@@H](NC(=O)[C@H](CC(C)C)NC(=O)[C@H](CCC(N)=O)NC(=O)CNC(=O)[C@@H](N)Cc1ccccc1)[C@@H](C)O)C(=O)N[C@@H](CCC(=O)O)C(=O)N[C@@H](CCC(N)=O)C(=O)N[C@@H](Cc1c[nH]cn1)C(=O)N[C@@H](Cc1ccc(O)cc1)C(=O)N[C@@H](CCC(=O)O)C(=O)N[C@@H](CC(C)C)C(=O)O [Peptide 68.0028] |  | > 20 | > 20 | 0.653 | > 20 | > 20 |  | > 20 |  | > 20 | > 20
13 | CC[C@H](C)[C@H](NC(=O)[C@@H](N)CCC(=O)O)C(=O)N[C@H](C(=O)N[C@@H](CC(C)C)C(=O)N[C@@H](Cc1c[nH]cn1)C(=O)N[C@@H](CC(C)C)C(=O)N[C@@H](CCC(=O)O)C(=O)N1CCC[C@H]1C(=O)N[C@@H](CCC(N)=O)C(=O)N[C@@H](CC(N)=O)C(=O)N[C@@H](CCC(=O)O)C(=O)N[C@@H](CC(C)C)C(=O)N[C@@H](CC(=O)O)C(=O)N1CCC[C@H]1C(=O)N[C@H](C(=O)O)C(C)C)C(C)C [Peptide 1543.20] | > 20 | > 20 | > 20 | > 20 | > 20 | > 20 |  |  |  |  | > 20
14 | GQRVPVSHSFPHPLY [Peptide 68.0005] | > 20 | > 20 | > 20 | 5.51 | > 20 |  | > 20 |  |  |  | 
15 | CC[C@H](C)[C@H](NC(=O)[C@@H]1CCCN1C(=O)[C@H](Cc1c[nH]cn1)NC(=O)[C@@H](NC(=O)[C@@H]1CCCN1C(=O)[C@@H](NC(=O)[C@H](CO)NC(=O)[C@@H]1CCCN1C(=O)[C@H](CC(C)C)NC(=O)CNC(=O)[C@@H](NC(=O)[C@H](C)NC(=O)[C@H](CCC(=O)O)NC(=O)[C@H](C)N)C(C)C)[C@@H](C)CC)C(C)C)C(=O)NCC(=O)O [Peptide 68.0101] | > 20 | > 20 | > 20 | 0.7 | > 20 |  |  |  |  |  | > 20
16 | YDPLYCESVHNFTLP [Peptide 68.0041] | > 20 | > 20 | > 20 | > 20 | > 20 |  |  |  |  | > 20 | 
17 | CC[C@H](C)[C@H](N)C(=O)N[C@@H](Cc1ccc(O)cc1)C(=O)N[C@@H](CO)C(=O)N[C@H](C(=O)N[C@@H](CO)C(=O)N[C@@H](CCSC)C(=O)N[C@@H](CCCCN)C(=O)N[C@@H](Cc1c[nH]cn1)C(=O)N1CCC[C@H]1C(=O)N[C@@H](CCC(N)=O)C(=O)N[C@@H](CCC(=O)O)C(=O)N[C@@H](CCSC)C(=O)N[C@@H](CCCCN)C(=O)N[C@H](C(=O)N[C@@H](Cc1ccc(O)cc1)C(=O)O)[C@@H](C)O)[C@@H](C)CC [Peptide 68.0126] |  | > 20 |  | 11.4 |  |  |  |  |  | > 20 | 
18 | TNKFSGYPLYHSVYE [Peptide 68.0116] |  | > 20 | > 20 | 4.48 |  |  |  | > 20 |  | > 20 | 
19 | VILLGRHSLFHPEDT [Peptide 68.0068] |  | > 20 |  | 0.056 |  |  |  | > 20 |  |  | 
